{"source": "ChEMBL document CHEMBL1201862", "about": "“PubChem BioAssay data set” (2004)", "key": {"Apelin receptor": {"biological_target": "Apelin receptor (Homo sapiens, UniProt P35414)", "sequence (P35414 whole entry, the tested form may be a part)": "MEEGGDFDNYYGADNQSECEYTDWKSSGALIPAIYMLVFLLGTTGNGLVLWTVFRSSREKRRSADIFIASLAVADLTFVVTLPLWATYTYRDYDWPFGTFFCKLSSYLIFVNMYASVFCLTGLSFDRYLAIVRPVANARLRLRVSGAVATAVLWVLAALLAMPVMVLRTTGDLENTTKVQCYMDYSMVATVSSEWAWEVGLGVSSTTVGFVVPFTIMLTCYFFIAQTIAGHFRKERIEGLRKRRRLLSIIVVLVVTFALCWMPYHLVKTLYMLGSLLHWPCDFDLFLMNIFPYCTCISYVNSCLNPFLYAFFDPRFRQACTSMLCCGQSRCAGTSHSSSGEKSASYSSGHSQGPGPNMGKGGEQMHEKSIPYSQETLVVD", "test": "apelin receptor antagonists, arrestin read-out – cell-based, luminescent, enzyme-fragment complementation, selectivity assay for CCR6 antagonist project, SAR follow-up (AID 588359)", "format": "functional"}, "[1]": {"biological_target": "T1, Short transient receptor potential channel 4 (Mus musculus, UniProt Q9QUQ5)", "T1 sequence (Q9QUQ5 whole entry)": "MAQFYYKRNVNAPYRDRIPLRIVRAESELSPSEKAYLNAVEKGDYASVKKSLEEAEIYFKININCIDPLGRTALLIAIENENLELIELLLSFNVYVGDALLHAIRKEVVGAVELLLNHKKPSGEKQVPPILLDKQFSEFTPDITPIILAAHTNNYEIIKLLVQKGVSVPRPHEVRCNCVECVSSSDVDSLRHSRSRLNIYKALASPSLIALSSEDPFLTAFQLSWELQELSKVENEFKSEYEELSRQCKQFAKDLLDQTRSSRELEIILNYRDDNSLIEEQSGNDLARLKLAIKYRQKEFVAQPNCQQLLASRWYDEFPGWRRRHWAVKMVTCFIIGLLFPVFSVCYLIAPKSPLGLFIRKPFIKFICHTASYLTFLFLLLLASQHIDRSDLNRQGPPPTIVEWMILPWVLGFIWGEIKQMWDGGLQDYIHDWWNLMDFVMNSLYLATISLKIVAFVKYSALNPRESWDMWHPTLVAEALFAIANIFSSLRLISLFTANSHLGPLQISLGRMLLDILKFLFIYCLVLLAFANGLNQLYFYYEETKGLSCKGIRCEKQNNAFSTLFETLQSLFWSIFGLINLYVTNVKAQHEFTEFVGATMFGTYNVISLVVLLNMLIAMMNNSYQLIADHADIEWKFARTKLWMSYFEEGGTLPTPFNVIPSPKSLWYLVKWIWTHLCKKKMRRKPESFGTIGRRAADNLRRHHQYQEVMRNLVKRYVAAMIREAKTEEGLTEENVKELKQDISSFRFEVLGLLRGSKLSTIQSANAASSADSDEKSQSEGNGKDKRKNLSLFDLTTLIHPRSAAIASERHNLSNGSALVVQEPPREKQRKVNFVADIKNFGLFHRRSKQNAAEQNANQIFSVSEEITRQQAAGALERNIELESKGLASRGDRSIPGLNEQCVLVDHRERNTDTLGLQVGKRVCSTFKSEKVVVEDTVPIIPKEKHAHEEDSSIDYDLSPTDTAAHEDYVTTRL", "test": "calcium entry via TRPC4 opening agents – cell-based, HEK293 TRPC4/mu-opioid, Fluo-4 calcium, dose response (AID 434937)", "format": "functional"}, "Protein RecA": {"biological_target": "T2, Protein RecA (Mycobacterium tuberculosis, UniProt P9WHJ3)", "T2 sequence (P9WHJ3 whole entry)": "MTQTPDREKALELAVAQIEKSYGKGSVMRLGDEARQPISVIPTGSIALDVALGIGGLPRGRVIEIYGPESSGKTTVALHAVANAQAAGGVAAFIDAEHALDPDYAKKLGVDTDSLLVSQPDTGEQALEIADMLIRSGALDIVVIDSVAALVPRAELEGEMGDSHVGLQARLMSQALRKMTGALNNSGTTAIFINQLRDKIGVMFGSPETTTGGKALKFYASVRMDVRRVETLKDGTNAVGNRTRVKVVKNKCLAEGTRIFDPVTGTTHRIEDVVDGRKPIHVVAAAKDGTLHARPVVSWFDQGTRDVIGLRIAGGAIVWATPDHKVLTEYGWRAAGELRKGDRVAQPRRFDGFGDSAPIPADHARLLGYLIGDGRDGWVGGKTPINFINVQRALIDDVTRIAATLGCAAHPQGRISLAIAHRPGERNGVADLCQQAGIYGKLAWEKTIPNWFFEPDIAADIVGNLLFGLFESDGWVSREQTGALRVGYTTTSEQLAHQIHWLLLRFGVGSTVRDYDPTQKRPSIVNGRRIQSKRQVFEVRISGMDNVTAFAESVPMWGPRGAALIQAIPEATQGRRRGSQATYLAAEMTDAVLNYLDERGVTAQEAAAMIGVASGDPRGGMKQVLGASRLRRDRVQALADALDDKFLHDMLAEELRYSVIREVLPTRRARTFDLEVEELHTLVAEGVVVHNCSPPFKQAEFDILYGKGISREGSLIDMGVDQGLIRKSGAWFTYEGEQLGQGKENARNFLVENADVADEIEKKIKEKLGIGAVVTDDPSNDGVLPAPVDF", "test": "Fluorescence Cell-Free Homogeneous Dose Retest to Identify Inhibitors of RecA-Intein Splicing Activity. [Related pubchem assays (depositor defined):AID2097, AID2223, AID489010, AID492950]", "format": "functional"}, "Streptococcus": {"test_system": "Streptococcus", "test": "GAS UMAA2166 growth inhibition – luminescence, BacTiterGlo, counter-screen for streptokinase expression inhibitor project, dose response (AID 1915);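 also: potency for reduction of bacterial viability or growth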", "format": "functional, organism-based"}, "Beta-galactosidase": {"biological_target": "Beta-galactosidase (Escherichia coli, UniProt Q8VNN2)", "sequence (Q8VNN2 whole entry)": "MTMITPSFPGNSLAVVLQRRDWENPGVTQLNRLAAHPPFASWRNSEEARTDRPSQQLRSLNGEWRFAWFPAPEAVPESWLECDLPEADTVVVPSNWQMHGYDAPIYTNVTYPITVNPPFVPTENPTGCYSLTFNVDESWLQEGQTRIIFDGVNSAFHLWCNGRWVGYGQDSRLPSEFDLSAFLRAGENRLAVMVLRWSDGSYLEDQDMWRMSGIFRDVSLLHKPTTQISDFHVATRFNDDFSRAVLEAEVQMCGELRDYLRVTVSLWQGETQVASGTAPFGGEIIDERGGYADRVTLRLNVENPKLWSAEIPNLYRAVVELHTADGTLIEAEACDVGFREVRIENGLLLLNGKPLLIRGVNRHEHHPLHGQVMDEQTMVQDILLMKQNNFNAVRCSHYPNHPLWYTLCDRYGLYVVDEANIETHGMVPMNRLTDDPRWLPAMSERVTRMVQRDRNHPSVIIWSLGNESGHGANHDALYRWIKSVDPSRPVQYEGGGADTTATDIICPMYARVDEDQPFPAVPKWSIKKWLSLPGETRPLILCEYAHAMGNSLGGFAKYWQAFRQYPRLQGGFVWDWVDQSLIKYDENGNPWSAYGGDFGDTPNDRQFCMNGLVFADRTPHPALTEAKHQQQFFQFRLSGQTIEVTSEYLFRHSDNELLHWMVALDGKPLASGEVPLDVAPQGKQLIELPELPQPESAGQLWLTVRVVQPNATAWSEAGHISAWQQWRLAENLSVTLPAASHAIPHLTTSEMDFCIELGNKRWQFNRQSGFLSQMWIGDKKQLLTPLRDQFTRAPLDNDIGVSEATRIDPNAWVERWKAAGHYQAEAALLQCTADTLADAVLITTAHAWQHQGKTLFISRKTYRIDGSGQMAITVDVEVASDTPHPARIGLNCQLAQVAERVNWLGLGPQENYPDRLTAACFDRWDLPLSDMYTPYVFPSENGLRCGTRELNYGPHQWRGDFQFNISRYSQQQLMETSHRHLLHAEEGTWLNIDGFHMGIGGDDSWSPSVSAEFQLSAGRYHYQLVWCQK", "test": "detection-enzyme interference by beta-gal modulators – biochemical, E. coli enzyme, set 3, artefact control for CCR6 antagonist project, dose response (AID 504712)", "format": "functional"}, "[2]": {"biological_target": "T3, Replicative DNA helicase DnaB (Mycobacterium tuberculosis, UniProt P9WMR3)", "T3 sequence (P9WMR3 whole entry)": "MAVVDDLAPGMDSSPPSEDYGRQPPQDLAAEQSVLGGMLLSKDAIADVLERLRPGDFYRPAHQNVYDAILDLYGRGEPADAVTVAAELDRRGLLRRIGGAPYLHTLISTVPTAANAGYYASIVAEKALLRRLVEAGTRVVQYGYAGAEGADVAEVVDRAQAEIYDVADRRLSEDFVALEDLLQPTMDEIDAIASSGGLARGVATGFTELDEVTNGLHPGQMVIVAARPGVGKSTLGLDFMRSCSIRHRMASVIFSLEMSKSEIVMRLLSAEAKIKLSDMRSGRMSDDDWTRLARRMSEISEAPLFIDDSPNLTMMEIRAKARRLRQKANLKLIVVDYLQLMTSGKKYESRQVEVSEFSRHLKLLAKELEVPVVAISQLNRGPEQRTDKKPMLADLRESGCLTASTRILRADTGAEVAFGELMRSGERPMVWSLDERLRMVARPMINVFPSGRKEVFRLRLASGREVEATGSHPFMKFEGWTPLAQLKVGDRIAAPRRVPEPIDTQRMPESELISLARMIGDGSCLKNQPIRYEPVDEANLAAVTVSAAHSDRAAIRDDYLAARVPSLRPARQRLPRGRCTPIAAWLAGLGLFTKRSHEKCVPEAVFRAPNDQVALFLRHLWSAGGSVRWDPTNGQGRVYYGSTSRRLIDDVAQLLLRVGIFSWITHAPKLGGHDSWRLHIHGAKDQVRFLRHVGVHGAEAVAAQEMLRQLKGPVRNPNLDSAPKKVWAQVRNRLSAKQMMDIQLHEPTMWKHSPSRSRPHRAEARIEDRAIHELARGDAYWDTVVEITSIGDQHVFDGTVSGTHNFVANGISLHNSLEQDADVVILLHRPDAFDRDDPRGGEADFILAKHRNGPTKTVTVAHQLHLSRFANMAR", "test": "DnaB intein splicing inhibitors, dose response, biochemical, cell-free fluorescence (AID 449749)", "format": "functional"}, "[3]": {"test_system": "Streptococcus sp. 'group A'", "test": "Streptococcus pyogenes SK(-)GAS viability under kanamycin – luminescence, BacTiterGlo, confirmation, counter-screen for streptokinase expression inhibitor project, dose response (AID 1900)", "format": "functional, organism-based"}, "[4]": {"test": "decrease of insulin promoter-GFP reporter – imaging, high-content screening, mouse beta cells (AID 1628)", "format": "functional", "settings": "MIN6"}, "[5]": {"test": "MIN6 cell viability loss – mouse insulinoma, cytotoxicity control, dose response (AID 2122);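 also: confirmatory high-throughput counterscreen run to flag cytotoxic compounds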", "format": "functional"}, "CAAX prenyl protease 2 [6]": {"biological_target": "T4, CAAX prenyl protease 2 (Saccharomyces cerevisiae S288c, UniProt Q03530)", "T4 sequence (Q03530 whole entry)": "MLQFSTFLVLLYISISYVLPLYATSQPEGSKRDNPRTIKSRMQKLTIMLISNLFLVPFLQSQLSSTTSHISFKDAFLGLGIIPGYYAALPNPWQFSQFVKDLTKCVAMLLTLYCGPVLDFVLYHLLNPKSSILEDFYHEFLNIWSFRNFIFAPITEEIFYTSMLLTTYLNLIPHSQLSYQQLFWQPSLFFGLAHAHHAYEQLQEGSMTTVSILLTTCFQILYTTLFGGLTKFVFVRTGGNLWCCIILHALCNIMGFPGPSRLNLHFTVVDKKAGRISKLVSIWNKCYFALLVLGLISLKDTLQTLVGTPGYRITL", "format": "biochemical"}, "CAAX prenyl protease 2 [7]": {"biological_target": "CAAX prenyl protease 2 (Homo sapiens, UniProt Q9Y256)", "sequence (Q9Y256 whole entry)": "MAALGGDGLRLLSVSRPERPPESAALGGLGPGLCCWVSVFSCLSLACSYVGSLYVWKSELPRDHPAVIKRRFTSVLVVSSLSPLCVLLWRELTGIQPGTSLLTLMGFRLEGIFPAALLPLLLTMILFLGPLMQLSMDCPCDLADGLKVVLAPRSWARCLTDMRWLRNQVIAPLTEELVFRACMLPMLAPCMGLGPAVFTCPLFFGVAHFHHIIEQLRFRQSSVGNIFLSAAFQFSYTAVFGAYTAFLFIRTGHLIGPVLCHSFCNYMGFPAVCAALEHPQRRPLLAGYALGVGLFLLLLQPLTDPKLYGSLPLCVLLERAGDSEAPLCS", "test": "inhibition of Ras-converting CAAX protease Rce1 – biochemical, yeast membranes, quenched-peptide fluorescence, cherry-pick, dose response (AID 588849)"}, "Nonstructural protein 1": {"biological_target": "Nonstructural protein 1 (Influenza A virus, UniProt Q194T2)", "sequence (Q194T2 whole entry)": "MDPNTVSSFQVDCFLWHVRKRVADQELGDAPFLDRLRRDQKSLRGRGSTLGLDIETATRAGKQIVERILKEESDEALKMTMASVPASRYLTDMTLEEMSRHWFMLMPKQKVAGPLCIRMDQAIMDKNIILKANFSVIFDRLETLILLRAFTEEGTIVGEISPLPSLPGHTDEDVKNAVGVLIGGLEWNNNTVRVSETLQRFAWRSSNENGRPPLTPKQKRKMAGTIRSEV", "format": "functional, Influenza A virus (A/California/07/2009(H1N1))"}, "Exodeoxyribonuclease V": {"biological_target": "Exodeoxyribonuclease V (Escherichia coli (strain K12), UniProt P04993+P07648+P08394)", "sequence (P04993 whole entry)": "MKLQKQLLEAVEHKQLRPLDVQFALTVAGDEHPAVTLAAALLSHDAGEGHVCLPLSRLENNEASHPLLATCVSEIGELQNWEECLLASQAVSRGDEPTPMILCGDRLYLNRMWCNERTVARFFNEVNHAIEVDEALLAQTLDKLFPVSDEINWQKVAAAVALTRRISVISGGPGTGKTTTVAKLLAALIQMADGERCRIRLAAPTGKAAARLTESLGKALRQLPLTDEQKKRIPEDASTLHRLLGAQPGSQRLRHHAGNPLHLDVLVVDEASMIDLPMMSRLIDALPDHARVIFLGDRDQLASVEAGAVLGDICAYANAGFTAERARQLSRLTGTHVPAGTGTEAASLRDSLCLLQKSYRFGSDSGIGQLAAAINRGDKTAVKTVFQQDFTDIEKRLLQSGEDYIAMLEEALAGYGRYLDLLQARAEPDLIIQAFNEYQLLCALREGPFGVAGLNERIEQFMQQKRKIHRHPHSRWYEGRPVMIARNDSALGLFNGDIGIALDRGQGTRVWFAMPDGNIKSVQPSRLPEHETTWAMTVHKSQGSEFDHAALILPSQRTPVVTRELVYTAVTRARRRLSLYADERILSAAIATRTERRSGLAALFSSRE", "sequence (P07648 whole entry)": "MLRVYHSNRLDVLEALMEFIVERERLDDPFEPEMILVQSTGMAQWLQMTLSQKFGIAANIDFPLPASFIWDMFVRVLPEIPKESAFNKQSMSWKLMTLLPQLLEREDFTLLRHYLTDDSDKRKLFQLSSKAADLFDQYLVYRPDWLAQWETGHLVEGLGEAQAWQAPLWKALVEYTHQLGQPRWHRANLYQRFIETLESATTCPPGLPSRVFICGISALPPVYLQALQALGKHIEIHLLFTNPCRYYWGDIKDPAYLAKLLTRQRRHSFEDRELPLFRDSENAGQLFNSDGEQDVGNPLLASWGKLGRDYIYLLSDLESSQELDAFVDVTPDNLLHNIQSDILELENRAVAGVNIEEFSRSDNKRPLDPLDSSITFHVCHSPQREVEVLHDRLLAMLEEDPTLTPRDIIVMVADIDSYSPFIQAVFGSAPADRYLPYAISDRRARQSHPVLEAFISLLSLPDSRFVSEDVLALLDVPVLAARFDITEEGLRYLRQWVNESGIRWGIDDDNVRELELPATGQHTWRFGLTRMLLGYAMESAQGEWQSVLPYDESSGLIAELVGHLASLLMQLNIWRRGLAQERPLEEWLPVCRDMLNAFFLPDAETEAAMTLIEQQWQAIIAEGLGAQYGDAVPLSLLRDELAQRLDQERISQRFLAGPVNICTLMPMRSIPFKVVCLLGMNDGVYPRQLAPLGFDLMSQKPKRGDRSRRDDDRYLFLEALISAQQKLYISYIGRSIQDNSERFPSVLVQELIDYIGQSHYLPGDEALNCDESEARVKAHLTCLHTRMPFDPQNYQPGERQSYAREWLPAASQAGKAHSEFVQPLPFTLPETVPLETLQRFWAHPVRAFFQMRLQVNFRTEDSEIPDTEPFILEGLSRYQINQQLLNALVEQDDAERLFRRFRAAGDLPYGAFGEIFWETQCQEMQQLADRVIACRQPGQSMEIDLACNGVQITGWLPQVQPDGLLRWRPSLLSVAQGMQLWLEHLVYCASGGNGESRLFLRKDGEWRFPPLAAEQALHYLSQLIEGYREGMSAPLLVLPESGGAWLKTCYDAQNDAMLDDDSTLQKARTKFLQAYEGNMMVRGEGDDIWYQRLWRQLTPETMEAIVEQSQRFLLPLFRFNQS", "sequence (P08394 whole entry)": "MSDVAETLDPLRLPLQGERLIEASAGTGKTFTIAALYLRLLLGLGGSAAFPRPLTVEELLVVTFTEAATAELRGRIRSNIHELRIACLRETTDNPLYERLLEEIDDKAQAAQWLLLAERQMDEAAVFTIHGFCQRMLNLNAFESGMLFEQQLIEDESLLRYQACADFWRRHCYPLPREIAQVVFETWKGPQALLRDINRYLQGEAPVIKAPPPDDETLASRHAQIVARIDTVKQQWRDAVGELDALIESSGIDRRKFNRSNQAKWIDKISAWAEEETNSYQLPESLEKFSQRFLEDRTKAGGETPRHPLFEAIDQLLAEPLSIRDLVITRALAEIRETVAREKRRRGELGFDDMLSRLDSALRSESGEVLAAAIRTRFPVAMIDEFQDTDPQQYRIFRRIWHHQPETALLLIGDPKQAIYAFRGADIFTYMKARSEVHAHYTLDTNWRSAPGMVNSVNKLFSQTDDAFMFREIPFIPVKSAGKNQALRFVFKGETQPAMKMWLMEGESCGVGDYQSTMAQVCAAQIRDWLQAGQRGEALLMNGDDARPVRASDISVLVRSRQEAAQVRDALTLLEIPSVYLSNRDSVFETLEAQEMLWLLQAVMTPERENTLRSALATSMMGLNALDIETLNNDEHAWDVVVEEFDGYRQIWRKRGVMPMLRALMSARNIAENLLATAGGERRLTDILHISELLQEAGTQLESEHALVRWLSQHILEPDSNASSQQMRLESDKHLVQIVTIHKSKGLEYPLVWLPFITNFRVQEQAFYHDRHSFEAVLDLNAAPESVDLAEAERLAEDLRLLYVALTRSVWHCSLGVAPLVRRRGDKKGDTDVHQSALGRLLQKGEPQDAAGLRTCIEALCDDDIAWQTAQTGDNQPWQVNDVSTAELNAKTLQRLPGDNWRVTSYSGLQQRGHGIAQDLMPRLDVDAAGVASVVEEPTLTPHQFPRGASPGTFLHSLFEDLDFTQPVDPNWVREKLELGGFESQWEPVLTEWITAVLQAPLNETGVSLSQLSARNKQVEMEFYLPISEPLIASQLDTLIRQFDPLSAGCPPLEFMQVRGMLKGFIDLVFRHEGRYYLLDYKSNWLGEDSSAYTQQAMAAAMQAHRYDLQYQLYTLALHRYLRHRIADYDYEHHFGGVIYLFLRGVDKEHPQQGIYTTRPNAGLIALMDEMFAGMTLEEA", "test": "RecBCD inhibition via phage-restricted bacterial growth – absorbance, V66 E. coli, mutant T4 phage, counter-screen for AddAB inhibitor project, dose response (AID 492957)", "format": "functional, cell-based, Escherichia coli str. K-12 substr. MG1655"}, "[8]": {"test": "Counterscreen for AddAB inhibitors: absorbance-based bacterial cell-based high throughput dose response assay for inhibitors of bacterial viability. [Related pubchem assays (depositor defined):AID435030, AID449728, AID449731, AID488942, AID488955, AID488956]", "format": "functional"}, "[9]": {"test": "Luminescence Cell-Based Dose Retest to Confirm Inhibitors of Cancer Stem Cells. [Related pubchem assays (depositor defined):AID2717, AID2721]", "format": "functional", "settings": "Homo sapiens"}, "BJ": {"test_system": "BJ", "test": "growth inhibition of engineered Ras-driven BJ cells – cell-based, alamar blue fluorescence, cherrypicked samples, dose response (AID 2631);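 also: confirmatory dose-response assay in RAS-dependent BJ fibroblasts engineered with TERT, LT and ST, with cytotoxicity read by fluorescence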", "format": "functional", "settings": "Homo sapiens"}, "INS1": {"test_system": "INS1", "test": "INS-1E survival protection against cytokine death – cell-based, luminescence, retest, dose response (AID 449756);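 also: cell death triggered by IL-1 beta plus TNF-alpha plus IFN-gamma mixture; protective hits raise ATP signal compared with cytokine alone wells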", "format": "functional", "settings": "Rattus norvegicus"}}, "note": "Activity calls are given as the source filed them.", "data": [{"smiles": "COC(=O)C1=NN(C(=O)c2cccc(Br)c2)C(O)(c2ccc(Cl)cc2)C1", "note": "(configuration not stated)", "values": [{"measurement": "IC50", "setting": "Apelin receptor", "value": "12.1 µM (active)"}, {"measurement": "EC50", "setting": "[1]", "value": "5.31 µM (active)"}, {"measurement": "EC50", "setting": "Protein RecA", "value": "13.7 µM (active)"}, {"measurement": "EC50", "setting": "Streptococcus", "value": "3.87 µM (active)"}, {"measurement": "IC50", "setting": "Beta-galactosidase", "value": "> 66.6 µM (inactive)"}, {"measurement": "AC50", "setting": "[2]", "value": "> 380 µM (inactive)"}, {"measurement": "EC50", "setting": "[3]", "value": "2.9 µM (active)"}]}, {"smiles": "Cc1nn(C)c(C)c1CNC(=O)c1cc2n(n1)C(C(F)(F)F)CC(c1cccs1)N2", "note": "(configuration not stated)", "values": [{"measurement": "IC50", "setting": "[4]", "value": "1.94 µM (active)"}, {"measurement": "IC50", "setting": "[5]", "value": "1.11 µM (active)"}]}, {"smiles": "CCOc1ccc2nc(O)c(CN(CCN3CCOCC3)Cc3nnnn3C(C)(C)CC)cc2c1", "values": [{"measurement": "AC50", "setting": "CAAX prenyl protease 2 [6]", "value": "> 100 µM (inactive)"}, {"measurement": "AC50", "setting": "CAAX prenyl protease 2 [7]", "value": "7.54 µM (active)"}]}, {"smiles": "COc1cccc(/C=N/Nc2ncnc(Cl)c2N)c1O", "values": [{"measurement": "IC50", "setting": "Nonstructural protein 1", "value": "3.65 µM (active)"}, {"measurement": "IC50", "setting": "Exodeoxyribonuclease V", "value": "> 119 µM (inactive)"}, {"measurement": "IC50", "setting": "[8]", "value": "> 119 µM (inactive)"}, {"measurement": "AC50", "setting": "[9]", "value": "2.96 µM (active)"}, {"measurement": "EC50", "setting": "BJ", "value": "1.27 µM (inconclusive)"}, {"measurement": "AC50", "setting": "INS1", "value": "1.02 µM (active)"}]}]}
